Values of other authors, collected in paper PMC10329699, “Pharmacokinetics, biodistribution and toxicology of novel cell-penetrating peptides” (Scientific Reports, 2023).
Where two headings read alike, the source gives them in different places. One block for each molecule: values may come before it.

Key:
[1] = literature values for comparison
Excerpt: Considering their smaller size (up to 30 amino acids in length), cationic and/or amphipathic CPPs have a greater potential to penetrate the BBB than other transport systems. […] For the sake of comparison, a control IgG, an IgG binding ...

- Clup (brain uptake coefficient), comparison values [1]: ≈ 1 µl g^−1 s^−1
Molecule: OC[C@H]1OC(O)[C@H](O)[C@@H](O)[C@@H]1O (stereo partly drawn) [glucose]

Molecule: TAT
- half-life (stability in human serum) (in vitro at 37 °C in human serum): 8.8 h

- half-life (stability in human serum) (human): 1.2 h
Molecule: penetratin
